Assay results as given in patent US4767770A, “Method of inhibiting aromatase” (Eli Lilly and Company, priority 1984, dated 1988).
Read-outs that look alike come from different tables or passages of the source.

Experiments:
[1] = tested on: estrogen synthesis (ovarian estradiol, estrone, estriol); assay: Estrogen Synthesis Inhibition in Rats: ovarian steroid concentration after [3H]-testosterone; format: in vivo, immature female Wistar rats; settings: 7 days
Protocol: Test compounds were administered for seven days as a component of the diet. Control animals received diet without the test compound. Beginning on the fourth day of the test, all animals treated with the test compound and one half of the control animals were given a subcutaneous injection of 1.0 mg of testosterone propionate in corn oil. The remaining control animals received only an equivalent volume of corn oil.
The ovarian steroids were extracted with 1.5 ml of 9:1 (v/v) toluene/ethanol to which had been added 25 to 100 mcg each of unlabelled estradiol, estriol, and estrone, and approximately 1000 dpm of [^14 C]-estradiol. The samples were vortexed, centrifuged at 500×g for 10 minutes, and the organic phase was transferred to a conical vial. Two additional extractions were performed on the residue in the same way. The pooled organic extracts were evaporated for subsequent thin-layer chromatography.
Ovarian proteins were precipitated by the addition of 5.0 ml of ethanol to the remaining aqueous phase. After an overnight incubation at 4° C., the samples were centrifuged at 1500×g for 10 minutes. The supernatant was discarded and the pellet was dissolved in 0.3N potassium hydroxide.
The organic residue from each above extraction was redissolved in 9:1 (v/v) dichloromethane/methanol. The solution of each sample was applied to separate silica gel thin layer chromatography plates which contained a fluorescent indicator. The plates were developed in the first dimension with 160:38:1.5:0.5 (v/v/v/v) dichloromethane/ethyl acetate/methanol/acetic acid to within 3 cm of the top of the plate. After air-drying, the plate was developed in the second dimension with 180:19:1 (v/v/v) dichloromethane/methanol/ammonium hydroxide.
The spots were scraped from the plate using a glass wool plugged Pasteur pipet attached to a vacuum line. The steroids were eluted directly into scintillation vials by the addition of 0.2 ml of dichloromethane followed by two washes each of 2.0 ml of methanol. The organic solvent was evaporated and 10.0 ml of scintillation fluid (Beckman Ready Solv-NA) was added to the vials. Samples were analyzed by liquid scintillation spectrometry. Corrections were made based on the recoveries of the [^14 C]-steroid. Steroid concentrations are expressed as femtomoles per milligram protein.

[2] = tested on: estrogen synthesis (aromatization); uterus; assay: Estrogen Synthesis Inhibition in Rats: uterine weight of testosterone propionate-treated immature rats; format: in vivo, immature female Wistar rats; settings: 7 days
Protocol: Immature female Wistar rats (45-55 grams) were divided into control and test groups of 2-8 animals each. Test compounds were administered for seven days as a component of the diet. Control animals received diet without the test compound. Beginning on the fourth day of the test, all animals treated with the test compound and one half of the control animals were given a subcutaneous injection of 1.0 mg of testosterone propionate in corn oil. The remaining control animals received only an equivalent volume of corn oil. On the seventh day of the test, rats treated with testosterone propionate were injected subcutaneously with 100 μCi of [^3 H]-testosterone in 50 μl of 3:1 (v/v) saline-ethanol.
After two hours, the animals were killed by decapitation. Uteri were isolated, trimmed of extraneous connective tissue, and weighed. […] In the control animals treated with testosterone propionate, estrogens produced by aromatization stimulated the uterus resulting in an increase in weight.
*ppm in feed. 300 ppm corresponds to approximately 30 mg/kg/day; 200 ppm
corresponds to approximately 20 mg/kg/day; 30 ppm corresponds to
approximately 3 mg/kg/day.

[3] = tested on: DMBA-induced mammary tumors; assay: DMBA-induced Mammary Tumor Inhibition; format: in vivo, female Sprague-Dawley rats; settings: 300 ppm in diet (approx. 30 mg/kg/day); for Mean Tumor Area, Start: baseline
Protocol: Mammary tumors were produced in female Sprague-Dawley rats which were 50-60 days old by the gavage administration of 20 mg of 7,12-dimethylbenz[a]anthracene (DMBA). About six weeks after DMBA administration, the mammary glands were palpated at weekly intervals for the appearance of tumors. Whenever one or more tumors appeared and were measurable in an animal, that animal was selected for experimentation. […] Each control and test group contained 8 animals. The test compound was administered mixed into the food at a concentration of 300 ppm (corresponding to an appropriate daily dose of 30 mg/kg). Every experiment included a group of control rats having tumors and were given food without the compound admixed. […] The area of each tumor was calculated by multiplying the shortest and longest diameters of the tumor. The treatment and measurement of animals continued for 4-5 weeks at which time the final areas of the tumors were determined. For each compound (and control) at each dose level, the change in the mean tumor area was determined.
*dosed in the diet. 300 ppm corresponds to approximately 30 mg/kg/day.

aromatase = molecular target: T1, aromatase (Rattus norvegicus, UniProt P22443); assay: biochemical
T1 sequence (P22443 1-508): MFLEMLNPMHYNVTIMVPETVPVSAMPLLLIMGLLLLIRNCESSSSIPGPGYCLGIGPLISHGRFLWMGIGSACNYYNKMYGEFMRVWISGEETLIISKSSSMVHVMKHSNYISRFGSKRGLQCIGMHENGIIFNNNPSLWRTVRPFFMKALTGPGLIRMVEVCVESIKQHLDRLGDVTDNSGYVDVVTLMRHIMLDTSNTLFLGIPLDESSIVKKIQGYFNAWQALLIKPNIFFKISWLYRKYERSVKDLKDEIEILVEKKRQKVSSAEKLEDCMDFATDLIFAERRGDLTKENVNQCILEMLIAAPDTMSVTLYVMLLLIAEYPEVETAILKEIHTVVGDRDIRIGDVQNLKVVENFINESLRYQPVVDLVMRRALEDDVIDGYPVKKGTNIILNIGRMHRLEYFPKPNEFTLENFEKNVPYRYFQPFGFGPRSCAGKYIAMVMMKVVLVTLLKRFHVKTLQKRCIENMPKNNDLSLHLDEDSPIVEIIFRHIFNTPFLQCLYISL
Protocol: In this test system, ovarian microsomes are obtained from rats treated with pregnant mares serum gonadotropin. Test compounds are added to reaction vials containing 0.1 μM 4-androstene-3,17-dione, 100,000 dpm 1,2[^3 H]-androstenedione, the microsomes and a NADPH generating system. The concentrations of the inhibitors tested ranged between 0.005 and 10 μM.

breast cancer = settings: result in words; see Cancer Research, Vol. 42, Suppl. 8:3261s (1982); cited from earlier work

## Fc1ccc(N(Cc2cccnc2)C2=NCCS2)c(F)c1 [N--(2,4-difluorophenyl)-N--(4,5-dihydro-2-thiazolyl)-3-pyridinemethanamine]
[1]; Test II, 30 ppm in feed (approx. 3 mg/kg/day), testosterone-treated control 0.64
  Mean Steroid Concentration, estrone: 0.65 femtomoles per milligram of protein
[1]; Test II, 30 ppm in feed (approx. 3 mg/kg/day), testosterone-treated control 1.98
  Mean Steroid Concentration, estriol: 1.56 femtomoles per milligram of protein
[1]; Test II, 30 ppm in feed (approx. 3 mg/kg/day), testosterone-treated control 2.07
  Mean Steroid Concentration, estradiol: 1.27 femtomoles per milligram of protein
[1]; Test II, 300 ppm in feed (approx. 30 mg/kg/day), testosterone-treated control 1.98
  Mean Steroid Concentration, estriol: 1.18 femtomoles per milligram of protein
[1]; Test II, 300 ppm in feed (approx. 30 mg/kg/day), value marked + (p < 0.05 vs testosterone-treated control, 0.64)
  Mean Steroid Concentration, estrone: 0.31 femtomoles per milligram of protein
[1]; Test II, 300 ppm in feed (approx. 30 mg/kg/day), value marked + (p < 0.05 vs testosterone-treated control, 2.07)
  Mean Steroid Concentration, estradiol: 1.05 femtomoles per milligram of protein
[2]; Test II, 30 ppm in feed (approx. 3 mg/kg/day), testosterone-treated control 176.7
  Mean Uterine Weight: 140.0 mg
[2]; Test II, 300 ppm in feed (approx. 30 mg/kg/day), value marked + (p < 0.05 vs testosterone-treated control, 176.7)
  Mean Uterine Weight: 104.5 mg
[3]; Test I, 5 weeks, control 73.9
  Mean Tumor Area, Start: 83.6 mm^2
[3]; Test I, 5 weeks, control 1140.0
  Mean Tumor Area, Finish: 536.0 mm^2
aromatase; rat ovarian microsomes, substrate (androstenedione) 0.1 μM
  EC50: 28 nM

## Clc1ccc(N(Cc2cccnc2)C2=NCCS2)cc1 [N--(4-chlorophenyl)-N--(4,5-dihydro-2-thiazolyl)-3-pyridinemethanamine]
[1]; Test I, 30 ppm in feed (approx. 3 mg/kg/day), testosterone-treated control 0.10
  Mean Steroid Concentration, estrone: 0.31 femtomoles per milligram of protein
[1]; Test I, 30 ppm in feed (approx. 3 mg/kg/day), testosterone-treated control 0.24
  Mean Steroid Concentration, estriol: 0.27 femtomoles per milligram of protein
[1]; Test I, 30 ppm in feed (approx. 3 mg/kg/day), testosterone-treated control 1.43
  Mean Steroid Concentration, estradiol: 1.46 femtomoles per milligram of protein
[1]; Test I, 300 ppm in feed (approx. 30 mg/kg/day), testosterone-treated control 0.10
  Mean Steroid Concentration, estrone: 0.09 femtomoles per milligram of protein
[1]; Test I, 300 ppm in feed (approx. 30 mg/kg/day), testosterone-treated control 0.24
  Mean Steroid Concentration, estriol: 0.46 femtomoles per milligram of protein
[1]; Test I, 300 ppm in feed (approx. 30 mg/kg/day), testosterone-treated control 1.43
  Mean Steroid Concentration, estradiol: 1.42 femtomoles per milligram of protein
[2]; Test I, 30 ppm in feed (approx. 3 mg/kg/day), value marked + (p < 0.05 vs testosterone-treated control, 211.5)
  Mean Uterine Weight: 141.5 mg
[2]; Test I, 300 ppm in feed (approx. 30 mg/kg/day), value marked + (p < 0.05 vs testosterone-treated control, 211.5)
  Mean Uterine Weight: 136.0 mg
[3]; Test II, 4 weeks, control 62.8
  Mean Tumor Area, Start: 61.4 mm^2
[3]; Test II, 4 weeks, control 1087.0
  Mean Tumor Area, Finish: 464.0 mm^2
aromatase
  EC50: 68 nM

## CCC1(c2ccc(N)cc2)CCC(=O)NC1=O (stereo not drawn) [aminoglutethimide]
Breast cancer
  effect in treatment of breast cancer: beneficial effect in treatment of breast cancer

## C[C@]12C=CC(=O)C=C1CC[C@@H]1[C@@H]2CC[C@]2(C)OC(=O)CC[C@@H]12 [testolactone]
Breast cancer
  effect in treatment of breast cancer: beneficial effect in treatment of breast cancer
